Earlier results as cited in patent US20150216948A1, “CYTOCHROME P450 SUICIDE GENE SYSTEM” (priority 2012, published 2015).

Conditions: 5-day infusion regimens, patients with lung and liver cancers

Compound: CC(O)CCC(=O)c1ccoc1 (stereo not shown) [4-IPO, 1-[3-furyl]-4-hydroxypentanone]
- serum concentrations, highly efficient for killing human P427 mutant CYP4B1 transgenic human cells within 72 h: up to 90 μM
